# Source: PubChem BioAssay (NCI)
#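 48-hour exposure; five concentrations; linearly interpolated endpoints. TGI: total growth inhibition.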
# Assays:
# Experiment in all cases: inhibition of tumour cell growth, NCI panel, 48 h
# [1] = tested on: MALME-3M melanoma
# [2] = tested on: SF-268 CNS
# [3] = tested on: NCI-H460 lung
# [4] = tested on: HOP-62 NSCLC
# [5] = tested on: CAKI-1 renal
# [6] = tested on: OVCAR-3 ovarian
# [7] = tested on: XF 498 CNS
# [8] = tested on: A549 NSCLC
# [9] = tested on: CCRF-CEM leukemia
# [10] = tested on: RPMI-8226 leukemia
# [11] = tested on: HCC-2998 colon
# [12] = tested on: NCI-H522 lung
# [13] = tested on: MOLT-4 leukemia
# [14] = tested on: SNB-75 CNS
# [15] = tested on: OVCAR-5 ovarian
# [16] = tested on: ACHN renal
# [17] = tested on: OVCAR-4 ovarian
# [18] = tested on: SF-295 CNS
# [19] = tested on: SW-620 colon
# [20] = tested on: UO-31 renal
# [21] = tested on: SK-OV-3 ovarian
# [22] = tested on: HT29 colon
# [23] = tested on: COLO 205 colon
# [24] = tested on: IGROV1 ovarian
# [25] = tested on: SK-MEL-28 melanoma
# [26] = tested on: A498 renal
# [27] = tested on: K-562 leukemia
# [28] = tested on: M19-MEL melanoma
# [29] = tested on: EKVX NSCLC
# [30] = tested on: KM12 colon
# [31] = tested on: M14 melanoma
# [32] = tested on: DLD-1 colon
# [33] = tested on: LXFL 529 NSCLC
# [34] = tested on: UACC-257 melanoma
# [35] = tested on: 786-0 renal
# [36] = tested on: HCT-15 colon
# [37] = tested on: SK-MEL-2 melanoma
# [38] = tested on: DMS 114 small cell lung
# [39] = tested on: TK-10 renal
# [40] = tested on: SNB-78 CNS
# [41] = tested on: KM20L2 colon
# [42] = tested on: OVCAR-8 ovarian
# [43] = tested on: NCI-H23 lung
# [44] = tested on: SNB-19 CNS
# [45] = tested on: UACC-62 melanoma
# [46] = tested on: SK-MEL-5 melanoma
# [47] = tested on: U251 CNS
# [48] = tested on: HOP-18 NSCLC
# [49] = tested on: HL-60(TB) leukemia
# [50] = tested on: NCI-H226 lung
# [51] = tested on: LOX IMVI melanoma
# [52] = tested on: DMS 273 small cell lung
# [53] = tested on: SF-539 CNS
# [54] = tested on: HOP-92 NSCLC
# [55] = tested on: RXF 393 renal
# [56] = tested on: SN12C renal
structure (smiles),measurement,setting,value
CCOC(=O)/C(=C/c1ccc(OC)c(OC)c1)C(=O)c1ccccc1,TGI,[1],> 100 µM
same,TGI,[2],36.7 µM
same,TGI,[3],> 100 µM
same,TGI,[4],35.6 µM
same,TGI,[5],31.8 µM
same,TGI,[6],33.6 µM
same,TGI,[7],29.9 µM
same,TGI,[8],90.2 µM
same,TGI,[9],55.1 µM
same,TGI,[10],39.1 µM
same,TGI,[11],32.5 µM
same,TGI,[12],29.1 µM
same,TGI,[13],48.9 µM
same,TGI,[14],28.5 µM
same,TGI,[15],40.6 µM
same,TGI,[16],68.1 µM
same,TGI,[17],60.3 µM
same,TGI,[18],46.9 µM
same,TGI,[19],48.5 µM
same,TGI,[20],27.5 µM
same,TGI,[21],73.1 µM
same,TGI,[22],30.8 µM
same,TGI,[23],31.1 µM
same,TGI,[24],51.4 µM
same,TGI,[25],28.5 µM
same,TGI,[26],46.5 µM
same,TGI,[27],> 100 µM
same,TGI,[28],44.1 µM
same,TGI,[29],67.4 µM
same,TGI,[30],31.5 µM
same,TGI,[31],28.9 µM
same,TGI,[32],34.5 µM
same,TGI,[33],25.3 µM
same,TGI,[34],33.2 µM
same,TGI,[35],> 100 µM
same,TGI,[36],42 µM
same,TGI,[37],> 100 µM
same,TGI,[38],32 µM
same,TGI,[39],65.4 µM
same,TGI,[40],56.3 µM
same,TGI,[41],38.7 µM
same,TGI,[42],76.8 µM
same,TGI,[43],35.6 µM
same,TGI,[44],30.1 µM
same,TGI,[45],29.5 µM
same,TGI,[46],29.5 µM
same,TGI,[47],65 µM
COc1ccccc1/C=C/C(=O)c1sc(-c2cccnc2)nc1C,TGI,[48],> 100 µM
same,TGI,[1],> 100 µM
same,TGI,[2],> 100 µM
same,TGI,[3],> 100 µM
same,TGI,[49],> 100 µM
same,TGI,[4],> 100 µM
same,TGI,[5],> 100 µM
same,TGI,[6],> 100 µM
same,TGI,[8],> 100 µM
same,TGI,[9],> 100 µM
same,TGI,[10],> 100 µM
same,TGI,[11],> 100 µM
same,TGI,[12],> 100 µM
same,TGI,[13],> 100 µM
same,TGI,[14],> 100 µM
same,TGI,[15],> 100 µM
same,TGI,[50],> 100 µM
same,TGI,[16],> 100 µM
same,TGI,[18],> 100 µM
same,TGI,[19],> 100 µM
same,TGI,[20],> 100 µM
same,TGI,[51],> 100 µM
same,TGI,[21],> 100 µM
same,TGI,[22],> 100 µM
same,TGI,[23],> 100 µM
same,TGI,[24],> 100 µM
same,TGI,[25],> 100 µM
same,TGI,[26],> 100 µM
same,TGI,[52],> 100 µM
same,TGI,[27],> 100 µM
same,TGI,[53],> 100 µM
same,TGI,[28],> 100 µM
same,TGI,[29],> 100 µM
same,TGI,[30],> 100 µM
same,TGI,[32],> 100 µM
same,TGI,[34],> 100 µM
same,TGI,[54],> 100 µM
same,TGI,[35],> 100 µM
same,TGI,[55],> 100 µM
same,TGI,[36],> 100 µM
same,TGI,[37],> 100 µM
same,TGI,[38],> 100 µM
same,TGI,[39],> 100 µM
same,TGI,[40],> 100 µM
same,TGI,[41],> 100 µM
same,TGI,[42],> 100 µM
same,TGI,[43],> 100 µM
same,TGI,[45],> 100 µM
same,TGI,[46],> 100 µM
same,TGI,[56],> 100 µM
same,TGI,[47],> 100 µM
